Results published in publication PMC11290694 (Science (New York, N.Y.), 2024).
Like-named read-outs stand apart in the source and are kept apart here.

Tests used:
PiB = assay: UV-visible absorption titration, single-site global fit; type: binding, synthetic construct
PiB′ = assay: as above; type: binding, synthetic construct

CNCc1ccc(-c2cc3cc(F)cc(C(N)=O)c3o2)cc1 [mefuparib]
Kd (PiB): 190 nM | Kd (PiB′; PDB 8TNB is labelled mefuparib-bound PiB in b31 but PiB′ in b20 and b22): 350 nM

NC(=O)c1cccc2cn(-c3ccc([C@@H]4CCCNC4)cc3)nc12 [niraparib]
Kd (PiB): 600 nM | Kd (PiB′): 550 nM
